{
  "source": "patent US12698141B2",
  "about": "“Methods for extracting and encapsulating phenolics from food waste, related compositions, and related articles” (BOARD OF TRUSTEES OF MICHIGAN STATE UNIVERSITY, priority 2019, dated 2026)",
  "test": "Release of quercetin in PBS solution from electrospun PLLA scaffold (spectrophotometer)",
  "assay_type": "physicochemical",
  "settings": "all three samples (quercetin:PLLA 1:16, 1:8, 1:4)",
  "experimental": "Materials and Methods: For fabrication of the scaffolds, an electrospinning apparatus consisting of a high voltage power supply (PCM series, Spellman, NY, USA) was used for charging the polymer solution, a grounded aluminum roto-translating drum (4 mm outer diameter and 13 cm in length) was used for collecting fibers, and a syringe pump (KDS-100, KD Scientific, Holliston, MA, USA) was used for controlling feed flow rate. Rotation was at 750 rpm and translation velocity at 1000 mm/min. The fluid was pushed out from the syringe with a flow rate of 1.1 mL/h, throughout a 0.25 mm diameter needle with a potential difference of 17 kV. All the samples were obtained using about 1.5 mL of initial solution. The polymer solution was prepared with Poly (L-lactide), PLLA, in 1,1,1,3,3,3-Hexafluoro-2-propanol (HFP) 20% (w/v). Three different volumes of quercetin dihydrate in ethanol (5.5 mg/mL) were added to obtain three different quercetin/polymer ratio: 1:4, 1:8, 1:16. […] The mechanical properties of the scaffolds were measured using uniaxial tensile test. The release of quercetin in PBS solution from the scaffold was measured using spectrophotometer at different times up to 75 days. Growth inhibition activity of quercetin against Escherichia coli and Saccharomyces cerevisiae was also assessed.",
  "data": [
    {"compound": "O=c1c(O)c(-c2ccc(O)c(O)c2)oc2cc(O)cc(O)c12", "note": "[quercetin]", "values": [
      {"measurement": "amount of quercetin released", "setting": "after 75 days of incubation at 4° C.", "value": 50, "unit": "%"},
      {"measurement": "amount of quercetin released", "setting": "after 75 days of incubation at 20° C.", "value": 50, "unit": "%"}
    ]}
  ]
}
